Active and inactive are the calls of the source. No cut-off for these calls is given here.
How the values were obtained:
Rattus norvegicus [1] = assay type: functional, Zucker
Rattus norvegicus [2] = test: Toxicity in Zucker rat sub-chronic fa/fa prediabetic model assessed as increase in food consumption at 10 mg/kg, po qd during 10 days study; assay type: organism-based; conditions: in vivo, 240 h
Estrogen receptor beta = Estrogen receptor beta (Homo sapiens, UniProt Q92731); test: Inhibition of fluormone ES2 binding to recombinant full length human ERbeta expressed in insect cells by fluorescence polarization assay
Chain of Estrogen receptor beta (Q92731 whole entry): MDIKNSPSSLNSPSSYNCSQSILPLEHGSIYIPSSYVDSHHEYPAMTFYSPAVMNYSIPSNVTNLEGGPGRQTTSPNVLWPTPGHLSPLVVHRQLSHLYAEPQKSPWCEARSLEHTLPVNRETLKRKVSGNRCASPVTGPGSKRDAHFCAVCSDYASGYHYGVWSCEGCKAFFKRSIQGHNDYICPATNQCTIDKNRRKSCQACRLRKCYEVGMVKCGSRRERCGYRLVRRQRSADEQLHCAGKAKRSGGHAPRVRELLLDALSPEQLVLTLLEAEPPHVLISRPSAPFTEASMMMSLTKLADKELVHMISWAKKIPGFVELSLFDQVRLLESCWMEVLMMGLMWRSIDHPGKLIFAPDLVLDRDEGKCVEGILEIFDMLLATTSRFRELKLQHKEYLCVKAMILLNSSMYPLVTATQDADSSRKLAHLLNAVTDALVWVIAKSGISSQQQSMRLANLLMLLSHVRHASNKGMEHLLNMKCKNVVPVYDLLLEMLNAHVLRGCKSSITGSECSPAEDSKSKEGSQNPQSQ

Rattus norvegicus [3] = test: Antidiabetic activity in po dosed Zucker rat sub-chronic fa/fa prediabetic model assessed as reduction in blood glucose AUC (0 to 120 min) once daily for 31 days measured on day 29 post dose by OGTT; assay type: functional, organism-based
Rattus norvegicus [4] = test: Antidiabetic activity in Zucker rat sub-chronic fa/fa prediabetic model assessed as blood insulin AUC (0 to 120 min) at 1 mg/kg, po qd for 31 days measured on day 29 post dose (reference value: 1503 +/- 160 ug.min/L); assay type: functional, organism-based; set-up: time < 2 hr, dose 1 mg/kg
Rattus norvegicus [5] = test: Antidiabetic activity in Zucker rat sub-chronic fa/fa prediabetic model assessed as blood insulin AUC (0 to 120 min) at 3 mg/kg, po qd for 31 days measured on day 29 post dose (reference value: 1503 +/- 160 ug.min/L); assay type: functional, organism-based; set-up: dose 3 mg/kg, time < 2 hr
[6] = AUC (0 to 24 hrs) in Zucker rat sub-chronic fa/fa prediabetic model at 3 mg/kg, po qd measured on day 1 post dose; assay type: ADME, organism-based; set-up: time < 24 hr, dose 3 mg/kg, route oral; conditions: in vivo
Rattus norvegicus [7] = test: Toxicity in Zucker rat sub-chronic fa/fa prediabetic model assessed as brown adipose tissue weight at 3 mg/kg, po qd for 31 days measured on day 32 (reference value: 2.1 +/- 0.3 g); assay type: organism-based; conditions: in vivo, 744 h
Rattus norvegicus [8] = test: Toxicity in Zucker rat sub-chronic fa/fa prediabetic model assessed as brown adipose tissue weight at 10 mg/kg, po qd for 31 days measured on day 32 (reference value: 2.1 +/- 0.3 g); assay type: organism-based; conditions: in vivo, 744 h
Rattus norvegicus [9] = test: Toxicity in Zucker rat sub-chronic fa/fa prediabetic model assessed as liver weight at 1 mg/kg, po qd for 31 days measured on day 32 (reference value: 28 +/- 1.6 g); assay type: organism-based; conditions: in vivo, 744 h
Rattus norvegicus [10] = test: Toxicity in Zucker rat sub-chronic fa/fa prediabetic model assessed as liver weight at 50 mg/kg, po qd for 31 days measured on day 32 (reference value: 28 +/- 1.6 g); assay type: organism-based; conditions: in vivo, 744 h
Rattus norvegicus [11] = test: Toxicity in Zucker rat sub-chronic fa/fa prediabetic model assessed as serum triglyceride level at 10 mg/kg, po qd for 31 days measured on day 32 (reference value: 1382 +/- 268 mg/dl); assay type: organism-based; conditions: in vivo, 744 h
Rattus norvegicus [12] = test: Toxicity in Zucker rat sub-chronic fa/fa prediabetic model assessed as serum ALT level at 10 mg/kg, po qd for 31 days measured on day 32 (reference value: 151 +/- 23 U/L); assay type: organism-based; conditions: in vivo, 744 h
Rattus norvegicus [13] = test: Toxicity in Zucker rat sub-chronic fa/fa prediabetic model assessed as serum AST level at 1 mg/kg, po qd for 31 days measured on day 32 (reference value: 187 +/- 37 U/L); assay type: organism-based; conditions: in vivo, 744 h
Rattus norvegicus [14] = test: Antidiabetic activity in Zucker rat sub-chronic fa/fa prediabetic model assessed as increase in serum adiponectin level administered orally once daily for 4 days by ELISA; assay type: functional, organism-based
[15] = Cmax in […] chronic ob/ob model at 10 mg/kg, po qd measured on day 1 post dose; assay type: ADME, organism-based; set-up: dose 10 mg/kg, route oral; conditions: in vivo
Rattus norvegicus [16] = test: Toxicity in […] chronic ob/ob model assessed as body weight at 10 mg/kg, po qd for 28 days measured on day 28 post last dose (reference value: 47.3 +/- 1.06 g); assay type: organism-based; conditions: in vivo, 672 h
Rattus norvegicus [17] = test: Toxicity in […] chronic ob/ob model assessed as food intake at 3 mg/kg, po qd for 28 days measured on day 1 to 28 during compound dosing (reference value: 170.6 +/- 3 g); assay type: organism-based; conditions: in vivo, 672 h
Rattus norvegicus [18] = test: Toxicity in […] chronic ob/ob model assessed as serum triglyceride level at 3 mg/kg, po qd for 31 days measured on day 32 (reference value: 329 +/- 36 mg/dl); assay type: organism-based; conditions: in vivo, 744 h
Rattus norvegicus [19] = test: Toxicity in […] chronic ob/ob model assessed as serum triglyceride level at 10 mg/kg, po qd for 31 days measured on day 32 (reference value: 329 +/- 36 mg/dl); assay type: organism-based; conditions: in vivo, 744 h
Rattus norvegicus [20] = test: Toxicity in […] model assessed as serum ALT level at 50 mg/kg, po qd for 31 days measured on day 32 (reference value: 127 +/- 9 U/L); assay type: organism-based; conditions: in vivo, 744 h
Rattus norvegicus [21] = test: Increase in PCK1 mRNA expression in epididymal white adipose tissue of Zucker rat sub-chronic fa/fa prediabetic model at 10 mg/kg, po qd for 15 days by RT-PCR method; assay type: functional, organism-based
Rattus norvegicus [22] = test: Increase in ERRalpha mRNA expression in epididymal white adipose tissue of Zucker rat sub-chronic fa/fa prediabetic model at 10 mg/kg, po qd for 15 days by RT-PCR method; assay type: functional, organism-based
Rattus norvegicus [23] = test: Effect on IDH3B gene expression in epididymal white adipose tissue of Zucker rat sub-chronic fa/fa prediabetic model at 10 mg/kg, po qd for 15 days by microarray analysis relative to control; assay type: functional
Rattus norvegicus [24] = test: Effect on SDHD gene expression in epididymal white adipose tissue of Zucker rat sub-chronic fa/fa prediabetic model at 10 mg/kg, po qd for 15 days by microarray analysis relative to control; assay type: functional
Rattus norvegicus [25] = test: Effect on NDUFA12 gene expression in epididymal white adipose tissue of Zucker rat sub-chronic fa/fa prediabetic model at 10 mg/kg, po qd for 15 days by microarray analysis relative to control; assay type: functional
Rattus norvegicus [26] = test: Effect on IGFBP6 gene expression in epididymal white adipose tissue of Zucker rat sub-chronic fa/fa prediabetic model at 10 mg/kg, po qd for 15 days by microarray analysis relative to control; assay type: functional
Rattus norvegicus [27] = test: Effect on SFN gene expression in epididymal white adipose tissue of Zucker rat sub-chronic fa/fa prediabetic model at 10 mg/kg, po qd for 15 days by microarray analysis relative to control; assay type: functional
Rattus norvegicus [28] = test: Effect on ME1 gene expression in epididymal white adipose tissue of Zucker rat sub-chronic fa/fa prediabetic model at 10 mg/kg, po qd for 15 days by microarray analysis relative to control; assay type: functional
Rattus norvegicus [29] = test: Effect on IMPA2 gene expression in epididymal white adipose tissue of Zucker rat sub-chronic fa/fa prediabetic model at 10 mg/kg, po qd for 15 days by microarray analysis relative to control; assay type: functional
Rattus norvegicus [30] = test: Effect on PTGS2 gene expression in epididymal white adipose tissue of Zucker rat sub-chronic fa/fa prediabetic model at 10 mg/kg, po qd for 15 days by microarray analysis relative to control; assay type: functional
Rattus norvegicus [31] = test: Effect on PCCB gene expression in epididymal white adipose tissue of Zucker rat sub-chronic fa/fa prediabetic model at 10 mg/kg, po qd for 15 days by microarray analysis relative to control; assay type: functional
Rattus norvegicus [32] = test: Effect on AADAT gene expression in epididymal white adipose tissue of Zucker rat sub-chronic fa/fa prediabetic model at 10 mg/kg, po qd for 15 days by microarray analysis relative to control; assay type: functional

CN1CC[C@@H](N2C(=O)S/C(=C\c3ccc4c(cnn4Cc4ccc(Cl)cc4C(F)(F)F)c3)C2=O)[C@H](F)C1
Activity (Rattus norvegicus [1]): 331.3 mg/dL | Activity (Rattus norvegicus [2]): Non-Toxic | IC50 (Estrogen receptor beta): > 10 µM | Activity (Rattus norvegicus [3]): Dose-dependent effect | AUC (Rattus norvegicus [4]): 16.6 ng·h/mL | AUC (Rattus norvegicus [5]): 16.7 ng·h/mL | AUC(0-t) at 24 h [6]: 5980 ng·h/mL | Activity (Rattus norvegicus [7]): 4.4 g | Activity (Rattus norvegicus [8]): 8.7 g | Activity (Rattus norvegicus [9]): 21.9 g | Activity (Rattus norvegicus [10]): 17.8 g | Activity (Rattus norvegicus [11]): 341 mg/dL | Activity (Rattus norvegicus [12]): 122 U/L | Activity (Rattus norvegicus [13]): 158 U/L | Activity (Rattus norvegicus [14]): Dose-dependent effect | Cmax [15]: 520 ng/mL | Activity (Rattus norvegicus [16]): 46.2 g | Activity (Rattus norvegicus [17]): 159.1 g | Activity (Rattus norvegicus [18]): 223 mg/dL | Activity (Rattus norvegicus [19]): 138 mg/dL | Activity (Rattus norvegicus [20]): 149 U/L | Activity (Rattus norvegicus [21]): Active | Activity (Rattus norvegicus [22]): Active | fold change (FC) (Rattus norvegicus [23]): 1.655 | fold change (FC) (Rattus norvegicus [24]): 1.275 | fold change (FC) (Rattus norvegicus [25]): 1.252 | fold change (FC) (Rattus norvegicus [26]): -1.269 | fold change (FC) (Rattus norvegicus [27]): -1.468 | fold change (FC) (Rattus norvegicus [28]): 2.409 | fold change (FC) (Rattus norvegicus [29]): 1.526 | fold change (FC) (Rattus norvegicus [30]): -1.389 | fold change (FC) (Rattus norvegicus [31]): -1.413 | fold change (FC) (Rattus norvegicus [32]): 2.931
